{
  "source": "patent US20230114207A1",
  "about": "“THE COMBINATION OF CYCLIN DEPENDENT KINASE 7 INHIBITOR AND IMMUNOTHERAPY FOR TREATMENT OF CANCER” (Dana-Farber Cancer Institute, Inc., priority 2019, published 2023)",
  "key": {"[1]": {"system": "Cyclin K, the obligate binding partner of CDK12/13", "assay": "Competitive pulldown assay (Bio-THZ1), Cyclin K", "assay_type": "cell-based, mouse", "conditions": "SCLC cells treated 6 hours", "description": "Bio-THZ1 pulldown experiments followed by western blotting of enriched proteins was performed as described in Kwiatkowski, et al., Nature, 2014, 511, 616-620. Briefly, cells were treated with YKL-5-124 or DMSO for 6 hr (in vitro) or 72 hr (in vivo). Following treatment, cells were washed twice with cold PBS and then lysed in the following lysis buffer: 50 mM TrisHCI pH 8.0, 150 mM NaCl, 1% NP-40, 5 mM EDTA, 1 mM DTT, and protease/phosphatase cocktails. Following clearance, lysates were treated with biotinylated THZ1 for pulldown overnight at 4° C. Lysates were further incubated at room temperature for 3 hr to increase the efficiency of covalent bond formation. Lysates were then incubated with streptavidin agarose for pulldown for an additional 2-3 hr at 4° C. Agarose beads were washed 5 times with lysis buffer and then boiled in 2×SDS at 95° C. SDS-page resolved precipitated proteins were probed for the indicated proteins."}, "[2]": {"system": "RPP orthotopic model", "assay": "Treatment study in RPP orthotopic SCLC model", "assay_type": "in vivo, mouse", "description": "All animal studies were reviewed and approved by the Institutional Animal Care and Use Committee (IACUC) at the New York University Langone Health (NYULH) and Dana-Farber Cancer Institute (DFCI). From 6 weeks of age, mice were induced with adenovirus-Cre recombinase (Ad-Cre) by intratracheal intubation to allow cre-lox-mediated recombination of floxed Rb1, p53 and p130 alleles. For syngeneic orthotopic models, ultrasound-guided transthoracic injection was performed using 200,000 RPP631, RP or RPP-MYC cells in 30 μL PBS directly into the lung of 6 to S-week-old C57BL/6 (Jackson Laboratory, Stock No: 000664). For OT-IT cell assay, OT-I mice were purchased from the Jackson Laboratory (Stock No: 003S31). Both males and females mice were used and all mice were maintained in accordance with the respective NYULH and DFCI on the care, welfare, and treatment of laboratory animals. […]\nAnimals were anesthetized with isoflurane to perform MRI of the lung field using BioSpec USR70/30 horizontal bore system (Bruker) to scan 24 consecutive sections. Tumor volumes within the whole lung were quantified using 3-D slicer software to reconstruct MRI volumetric measurements as described previously. […]"}, "[3]": {"system": "intratumoral cell populations, RPP orthotopic mice", "assay": "Single-cell RNA sequencing of tumor-bearing lungs", "assay_type": "in vivo, mouse", "description": "To account for interindividual variability, we harvested pooled fresh tumor-bearing lungs from two mice in two independent cohorts of RPP orthotopic mice which were treated with control, YKL-5-124, anti-PD-1 and combination treatment for seven days. Single cell suspensions were achieved as described above and were sorted using DAPI staining. Cells were then resuspended into single cells with 0.4% BSA for 10× genomics processing. Cell suspensions were loaded onto a 10× Genomics Chromium instrument to generate single-cell gel beads in emulsion (GEMs). Approximately 5,000 to 10,000 cells were loaded per channel. scRNA-seq libraries were prepared using the following Single Cell 3′ Reagent Kits: Chromium™ Single Cell 3′ Library & Gel Bead Kit v2 (PN-120237), Single Cell 3′ Chip Kit v2 (PN-120236) and i7 Multiplex Kit (PN-120262) (10× Genomics, Pleasanton, Calif., USA), and following the Single Cell 3′ Reagent Kits v2 User Guide (Manual Part #CG00052 Rev A). Libraries were run on an Illumina HiSeq 4000 system (SY-401-4001, Illumina) as 2×150 paired-end reads, one full lane per sample, for approximately >90% sequencing saturation.\nThe Cell Ranger Single Cell Software Suite, version 1.3 was used to perform sample de-multiplexing, barcode and UMI processing, and single-cell 3′ gene counting. A detailed description of the pipeline and specific instructions to run it can be found at: https://Support.10×genomics.com/single-cell-gene-expression/software/pipelines/latest/what-is-cell-ranger). A high quality gene expression matrix was created in sequential preprocessing steps as provided in the Seurat (v2.3.4) pipeline. First only genes that were detected in both independent scRNAseq datasets were retained and cells were excluded if respectively more than […] of detected genes were from mitochondrial or ribosomal origin or if less than 500 genes were detected. The count matrix was subsequently log-normalized with a scale-factor of 10000 and the obtained normalized matrix was further corrected by retaining the residuals after regressing out systematic changes due to number of detected UMIs, percent genes from mitochondrial or ribosomal origin.\nCells from both independent datasets were merged together in canonical correlation (CC) space using the intersection of highly variable genes, identified as genes with higher-than-expected variability in consecutive ranked expression bins, from both datasets. The implementation of CC alignment and selection of downstream dimensions to use was performed as described in the Seurat package. Cells were clustered using the Louvain algorithm based on a shared nearest-neighbor network. The final resolution of all subsequent clustering analyses was determined by the biological questions and the need for coarse or fine-grained detail as explored in the subsequent cluster annotation. Clusters were annotated using input from multiple sources, we i) calculated a stromal, cancer and immune score using the estimate (v1.0.13) package in R, ii) identified cluster specific gene expression markers based on gini-scores, iii) created a hierarchical tree based on Pearson correlation scores between clusters to visualize lineage relationships and iv) compared clusters to those of the Immgen database using the SingleR (v0.2.1) package in R. UMAP as implemented by the uwot (v0.0.0.9010) package in R was used to visualize clusters in 2D CC space. Overall this strategy was hierarchically used to assess all cells, cancer cells only, immune cells only and finally T-cells only.\nIn the first clustering step, several additional analyses were performed to remove dubious or non-reproducible clusters from downstream analyses. To identify contamination of immune cell clusters with cancer cells we performed k-means (2 centers) clustering on all cells on identified and known canonical markers (Epcam, Calca, Stmn1, Ascl1, Krt7, Nfib, Krt8, Krt18) specific to cancer cells. […]"}},
  "data": [
    {"compound": "C=CC(=O)Nc1ccc(C(=O)Nc2n[nH]c3c2CN(C(=O)N[C@H](CN(C)C)c2ccccc2)C3(C)C)cc1", "note": "[YKL-5-124]", "values": [
      {"measurement": "block of pulldown of Cyclin K", "setting": "[1]", "value": "failed to block"},
      {"measurement": "added median survival benefit", "setting": "[2]; RPP model, vs control", "value": "approximately 30 days"},
      {"measurement": "tumor response / tumor growth (MRI tumor volume)", "setting": "[2]; RPP orthotopic model, 2- to 3-week", "value": "significant tumor response"},
      {"measurement": "frequencies of total immune cell components", "setting": "[3]; compared with control group", "value": "increase"},
      {"measurement": "DCs", "setting": "[3]; in comparison to control", "value": "increase"},
      {"measurement": "myeloid compartments", "setting": "[3]; in comparison to control", "value": "higher numbers of monocytes and neutrophils"},
      {"measurement": "percentage of total T cells, NK cells and ILC cells", "setting": "[3]; in comparison to control", "value": "significant increase"},
      {"measurement": "genes within the 'cell-cycle' and 'E2F target' signatures (GSEA)", "setting": "[3]; in vivo", "value": "significantly downregulated"},
      {"measurement": "immune response signaling ('Interferon gamma response', 'Inflammatory response')", "setting": "[3]; in vivo", "value": "triggered robust immune response signaling"},
      {"measurement": "cell-cycle state distribution of cancer cells", "setting": "[3]; in vivo, seven days", "value": "mainly arrested at G1 phase"},
      {"measurement": "percentage of S phase cells (cluster 4, 5 and 6)", "setting": "[3]; in vivo, seven days", "value": "significant decrease"},
      {"measurement": "c0, c8 and c9 clusters of naive-like CD8^+ T cells", "setting": "[3]; mouse, in vivo", "value": "reduction"},
      {"measurement": "c4 percentage", "setting": "[3]; mouse, in vivo", "value": "slight reduction"}
    ]}
  ]
}
